Read-outs that look alike come from different tables or passages of the source.
Legend:
full-length human RORγt = full-length human RORγt (Homo sapiens (Human), UniProt P51449); assay: RORγt (full-length human) reporter assay, Conditions B or C; assay type: cell-based; settings: for inhibition at 3 µM: at 3 μM compound concentration; for RORγt (FL) Reporter Assay B or C, % inhibition (value marked *): marked *: footnote not given; for inhibition at 6 µM: read-out: RORγt (FL) Reporter Assay B or C, % inhibition @ 6 μM, Conditions B or C
Procedure, shortened: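 Readout is dual luciferase: firefly (GAL4-driven) normalized to DMSO-only and saturating-reference controls, then to CMV-Renilla. Full-length human RORγt fused to GAL4-DBD was transiently expressed in HEK293T; compound exposure ran overnight (16-20 h) starting 4-6 h after transfection, final FBS 1.3%, DMSO 0.1%.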

[1] = biological target: human RORγt ligand binding domain (RORγt LBD) (Homo sapiens (Human), UniProt P51449); assay: RORγt ThermoFluor® assay (thermal shift binding); settings: read-out: ThermoFluor® Assay, Kd
Procedure, shortened: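 Binding was inferred from thermal stabilisation (ΔTm) of the E. coli-expressed RORγt LBD (0.065 mg/mL), monitored by 1,8-ANS (60 μM) emission at 500 nm during a 1 °C/min ramp. Buffer was Hepes 100 mM pH 7.0 with NaCl, GSH and Tween-20.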

[2] = read-out: RORγt (FL) Reporter Assay B or C, % inhibition
[3] = read-out: RORγt (FL) Reporter Assay B or C, IC50
[4] = Conditions B or C, read-out: RORγt (FL) Reporter Assay B or C, IC50

Chain of human RORγt ligand binding domain (RORγt LBD) (P51449 other isoform, or with tags, fused parts or gaps): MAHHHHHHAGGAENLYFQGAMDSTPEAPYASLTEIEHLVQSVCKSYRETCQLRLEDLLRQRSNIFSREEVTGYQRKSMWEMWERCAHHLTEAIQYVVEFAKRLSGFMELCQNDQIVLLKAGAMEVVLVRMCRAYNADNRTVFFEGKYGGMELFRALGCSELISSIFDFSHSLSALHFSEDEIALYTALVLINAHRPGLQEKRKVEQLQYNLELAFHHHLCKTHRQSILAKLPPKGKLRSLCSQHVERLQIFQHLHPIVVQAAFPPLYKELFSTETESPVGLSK
Chain of full-length human RORγt (P51449 other isoform, or with tags, fused parts or gaps): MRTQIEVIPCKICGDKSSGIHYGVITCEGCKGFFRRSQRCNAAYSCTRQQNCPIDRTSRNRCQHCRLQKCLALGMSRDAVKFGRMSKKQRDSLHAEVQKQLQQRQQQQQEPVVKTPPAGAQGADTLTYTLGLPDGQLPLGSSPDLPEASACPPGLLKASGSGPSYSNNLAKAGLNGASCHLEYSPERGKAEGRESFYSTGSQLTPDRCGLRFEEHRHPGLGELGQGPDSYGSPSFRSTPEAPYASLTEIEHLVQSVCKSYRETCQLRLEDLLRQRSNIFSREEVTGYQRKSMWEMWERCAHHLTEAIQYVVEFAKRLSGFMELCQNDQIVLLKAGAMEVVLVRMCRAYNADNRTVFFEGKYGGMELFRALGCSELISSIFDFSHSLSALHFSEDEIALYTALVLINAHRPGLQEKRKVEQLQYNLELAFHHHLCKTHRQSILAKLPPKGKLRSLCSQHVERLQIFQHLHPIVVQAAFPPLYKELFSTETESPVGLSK

Question: Which inhibition at 3 µM (full-length human RORγt; [2]) does the source give for C[C@H]1CCCN1C(=O)c1nc(C(=O)NC2CCS(=O)(=O)CC2)sc1-c1cnc(NC(C)(C)C)cc1C(F)(F)F [Example 254, 5-[6-(tert-Butylamino)-4-(trifluoromethyl)-3-pyridyl]-N-(1,1-dioxothian-4-yl)-4-[(2S)-2-methylpyrrolidine-1-carbonyl]thiazole-2-carboxamide] here?
Answer: Its inhibition at 3 µM is 107%.

Question: And the IC50 (full-length human RORγt; [3])?
Answer: The IC50 was 16 nM.

Question: And the Kd [1]?
Answer: Its Kd is 0.25 nM.

Question: C[C@H]1CCCN1C(=O)c1nc(C(=O)NCC2(O)CC2)sc1-c1cnc(NC2CCCC2)cc1C(F)F [Example 2, (S)-5-(6-(Cyclopentylamino)-4-(difluoromethyl)pyridin-3-yl)-N-((1-hydroxycyclopropyl)methyl)-4-(2-methylpyrrolidine-1-carbonyl)thiazole-2-carboxamide] was tested. Which “RORγt (FL) Reporter Assay B or C, % inhibition (value marked *)” value (“RORγt … % inhibition (value marked *)” below) (full-length human RORγt; Conditions B or C) did it give?
Answer: The value was 95* %.

Question: What about the IC50 (full-length human RORγt; [4]) of the same molecule?
Answer: The IC50 was 77 nM.

Question: And the Kd [1]?
Answer: The Kd was 40 nM.

Question: Which “RORγt … % inhibition (value marked *)” value (full-length human RORγt; Conditions B or C) does the source give for CC[C@@H](Nc1cc(C(F)(F)F)c(-c2sc(C(=O)NCC(C)(C)O)nc2C(=O)N2CCC[C@@H]2C)cn1)C1CC1 (relative stereo) [Example 129, 5-(6-(((R*)-1-Cyclopropylpropyl)amino)-4-(trifluoromethyl)pyridin-3-yl)-N-(2-hydroxy-2-methylpropyl)-4-((S)-2-methylpyrrolidine-1-carbonyl)thiazole-2-carboxamide] here?
Answer: The value was 104* %.

Question: What about the IC50 (full-length human RORγt; [4]) of the same molecule?
Answer: The IC50 was 11 nM.

Question: What about the Kd [1] of the same molecule?
Answer: Its Kd is 3 nM.

Question: Which results are given for C[C@H]1CCCCN1C(=O)c1nc(C(=O)NCC(C)(C)O)sc1-c1cnc(NC2CCCCC2)cc1C(F)F [Example 34, (S)-5-(6-(Cyclohexylamino)-4-(difluoromethyl)pyridin-3-yl)-N-(2-hydroxy-2-methylpropyl)-4-(2-methylpiperidine-1-carbonyl)thiazole-2-carboxamide]?
Answer: IC50 (full-length human RORγt; [4]): 6.9 nM; inhibition at 6 µM (full-length human RORγt): 105%; Kd [1]: 0.29 nM

Question: How did the “RORγt … % inhibition (value marked *)” value (full-length human RORγt; Conditions B or C) turn out when C[C@H]1CCCN1C(=O)c1nc(C(=O)NC[C@H](O)C(C)(C)O)sc1-c1cnc(NC(C)(C)C)cc1C(F)(F)F (single isomer, unassigned) [Example 244, 5-(6-(tert-Butylamino)-4-(trifluoromethyl)pyridin-3-yl)-N—((S*)-2,3-dihydroxy-3-methylbutyl)-4-((S)-2-methylpyrrolidine-1-carbonyl)thiazole-2-carboxamide] was run?
Answer: Its value is 106* %.

Question: And the IC50 (full-length human RORγt; [4])?
Answer: Its IC50 is 8.3 nM.

Question: What about the Kd [1] of the same molecule?
Answer: The Kd was 6.2 nM.

Question: What does the source list for C[C@H](Nc1cc(C(F)F)c(-c2sc(C(=O)N[C@@H]3CCC[C@H]3O)nc2C(=O)N2CCC[C@@H]2C)cn1)C(F)(F)F [Example 283, 5-(4-(Difluoromethyl)-6-(((S)-1,1,1-trifluoropropan-2-yl)amino)pyridin-3-yl)-N-((1R,2R)-2-hydroxycyclopentyl)-4-((S)-2-methylpyrrolidine-1-carbonyl)thiazole-2-carboxamide]?
Answer: inhibition at 3 µM (full-length human RORγt; [2]): 106%; IC50 (full-length human RORγt; [3]): 54 nM; Kd [1]: 1.9 nM

Question: How did the inhibition at 3 µM (full-length human RORγt; [2]) turn out when CCNC(=O)c1nc(C(=O)N2CCC[C@@H]2C)c(-c2cnc(NC(C)(C)C)cc2C(F)(F)F)s1 [Example 309, (S)-5-(6-(tert-Butylamino)-4-(trifluoromethyl)pyridin-3-yl)-N-ethyl-4-(2-methylpyrrolidine-1-carbonyl)thiazole-2-carboxamide] was run?
Answer: Its inhibition at 3 µM is 95%.

Question: What about the IC50 (full-length human RORγt; [3]) of the same molecule?
Answer: Its IC50 is 13 nM.

Question: What about the Kd [1] of the same molecule?
Answer: The Kd was 16 nM.

Question: Which inhibition at 3 µM (full-length human RORγt; [2]) does the source give for C[C@H](Nc1cc(C(F)F)c(-c2sc(C(=O)N[C@H]3CC[C@H](O)C3)nc2C(=O)N2C3CCC2CC3)cn1)C(F)(F)F [Example 411, 4-((1s,4s)-7-Azabicyclo[2.2.1]heptane-7-carbonyl)-5-[4-(difluoromethyl)-6-[[(1S)-2,2,2-trifluoro-1-methyl-ethyl]amino]-3-pyridyl]-N-[(1S,3S)-3-hydroxycyclopentyl]thiazole-2-carboxamide] here?
Answer: Its inhibition at 3 µM is 100%.

Question: What about the IC50 (full-length human RORγt; [3]) of the same molecule?
Answer: The IC50 was 110 nM.

Question: And the Kd [1]?
Answer: Its Kd is 3.6 nM.

Question: Which results are given for C[C@H](Nc1cc(C(F)F)c(-c2sc(C(=O)N[C@H]3COC[C@@H]3O)nc2C(=O)N2CC(F)(F)C[C@@H]2C)cn1)C(F)(F)F [Example 190]?
Answer: RORγt (FL) Reporter Assay B or C, % inhibition (value marked *) (full-length human RORγt; Conditions B or C): 104* %; IC50 (full-length human RORγt; [4]): 34 nM; Kd [1]: 3.8 nM

Question: CC[C@H](Nc1cc(C(F)F)c(-c2sc(C(=O)NC3CS(=O)(=O)C3)nc2C(=O)N2CCC[C@@H]2C)cn1)C(F)(F)F [Example 240, 5-[4-(Difluoromethyl)-6-[[(1S)-1-(trifluoromethyl)propyl]amino]-3-pyridyl]-N-(1,1-dioxothietan-3-yl)-4-[(2S)-2-methylpyrrolidine-1-carbonyl]thiazole-2-carboxamide] was tested. Which “RORγt … % inhibition (value marked *)” value (full-length human RORγt; Conditions B or C) did it give?
Answer: Its value is 107* %.

Question: And the IC50 (full-length human RORγt; [4])?
Answer: Its IC50 is 57 nM.

Question: And the Kd [1]?
Answer: Its Kd is 2.5 nM.

Question: How did the IC50 (full-length human RORγt; [4]) turn out when C[C@H]1CCCN1C(=O)c1nc(C(=O)NCC(C)(C)O)sc1-c1cnc(NC2CCCC2)cc1C(F)F [Example 42, (S)-5-(6-(Cyclopentylamino)-4-(difluoromethyl)pyridin-3-yl)-N-(2-hydroxy-2-methylpropyl)-4-(2-methylpyrrolidine-1-carbonyl)thiazole-2-carboxamide] was run?
Answer: Its IC50 is 42 nM.

Question: And the inhibition at 6 µM (full-length human RORγt)?
Answer: The inhibition at 6 µM was 111%.

Question: And the Kd [1]?
Answer: Its Kd is 9.3 nM.

Question: For CC[C@H](Nc1cc(C(F)(F)F)c(-c2sc(C(=O)NCC(C)(C)O)nc2C(=O)N2CC(F)(F)C[C@@H]2C)cn1)C(F)(F)F [Example 102, 4-((S)-4,4-Difluoro-2-methylpyrrolidine-1-carbonyl)-N-(2-hydroxy-2-methylpropyl)-5-(6-(((S)-1,1,1-trifluorobutan-2-yl)amino)-4-(trifluoromethyl)pyridin-3-yl)thiazole-2-carboxamide], which “RORγt … % inhibition (value marked *)” value (full-length human RORγt; Conditions B or C) is on record?
Answer: The value was 116* %.

Question: What about the IC50 (full-length human RORγt; [4]) of the same molecule?
Answer: The IC50 was 17 nM.

Question: What about the Kd [1] of the same molecule?
Answer: Its Kd is 0.99 nM.

Question: What does the source list for CC[C@H](Nc1cc(C(F)F)c(-c2sc(C(=O)N[C@H]3CC[C@@H]3O)nc2C(=O)N2C3CCC2CC3)cn1)C(F)(F)F (relative stereo) [Example 406, 4-((1s,4s)-7-Azabicyclo[2.2.1]heptane-7-carbonyl)-5-(4-(difluoromethyl)-6-(((S)-1,1,1-trifluorobutan-2-yl)amino)pyridin-3-yl)-N-((1S*,2S*)-2-hydroxycyclobutyl)thiazole-2-carboxamide]?
Answer: inhibition at 0.3 µM (full-length human RORγt; at 0.3 μM compound concentration, read-out: RORγt (FL) Reporter Assay B or C, % inhibition): 92%; IC50 (full-length human RORγt; [3]): 81 nM; Kd [1]: 2.7 nM

Question: What does the source list for CC(C)(C)Nc1cc(C(F)F)c(-c2sc(C(=O)N[C@@H]3CCC[C@H]3O)nc2C(=O)N2C3CCC2CC3)cn1 [Example 434, 4-((1s,4s)-7-Azabicyclo[2.2.1]heptane-7-carbonyl)-5-[6-(tert-butylamino)-4-(difluoromethyl)-3-pyridyl]-N-[(1R,2R)-2-hydroxycyclopentyl]thiazole-2-carboxamide]?
Answer: IC50 (full-length human RORγt; RORγt (FL) Reporter Assay B or C, IC50): 11 nM; inhibition at 3 µM (full-length human RORγt; [2]): 103%; Kd [1]: 0.63 nM

Question: What does the source list for C[C@H]1CCCN1C(=O)c1nc(C(=O)NC2(C)COC2)sc1-c1cnc(NC(C)(C)C)cc1C(F)(F)F [Example 253, 5-[6-(tert-Butylamino)-4-(trifluoromethyl)-3-pyridyl]-N-(3-methyloxetan-3-yl)-4-[(2S)-2-methylpyrrolidine-1-carbonyl]thiazole-2-carboxamide]?
Answer: inhibition at 3 µM (full-length human RORγt; [2]): 108%; IC50 (full-length human RORγt; [3]): 7.7 nM; Kd [1]: 1.9 nM

Question: C[C@H](Nc1cc(C(F)F)c(-c2sc(C(=O)N[C@H](C)C(C)(C)O)nc2C(=O)N2CC(F)(F)C[C@@H]2C)cn1)C(F)(F)F [Example 198] was tested. Which “RORγt … % inhibition (value marked *)” value (full-length human RORγt; Conditions B or C) did it give?
Answer: Its value is 102* %.

Question: What about the IC50 (full-length human RORγt; [4]) of the same molecule?
Answer: The IC50 was 53 nM.

Question: And the Kd [1]?
Answer: Its Kd is 2.5 nM.

Question: CC[C@@H](Nc1cc(C(F)F)c(-c2sc(C(=O)N[C@H](C)CO)nc2C(=O)N2CCC[C@@H]2C)cn1)C(F)(F)F [Example 206, 5-(4-(Difluoromethyl)-6-(((1R)-1-(trifluoromethyl)propyl)amino)-3-pyridyl)-N-((1R)-2-hydroxy-1-methyl-ethyl)-4-((2S)-2-methylpyrrolidine-1-carbonyl)thiazole-2-carboxamide] was tested. Which “RORγt (FL) Reporter Assay B or C, % inhibition (value marked ***)” value (full-length human RORγt; Conditions B or C, marked ***: footnote not given) did it give?
Answer: Its value is 106*** %.

Question: And the IC50 (full-length human RORγt; [4])?
Answer: Its IC50 is 35 nM.

Question: What about the Kd [1] of the same molecule?
Answer: The Kd was 3.2 nM.

Question: C[C@H](Nc1cc(C(F)F)c(-c2sc(C(=O)N[C@@H]3CCC[C@H]3O)nc2C(=O)N2CC(F)(F)C[C@@H]2C)cn1)C(F)(F)F [Example 420, 4-[(2S)-4,4-Difluoro-2-methyl-pyrrolidine-1-carbonyl]-5-[4-(difluoromethyl)-6-[[(1S)-2,2,2-trifluoro-1-methyl-ethyl]amino]-3-pyridyl]-N-[(1R,2R)-2-hydroxycyclopentyl]thiazole-2-carboxamide] was tested. Which inhibition at 3 µM (full-length human RORγt; [2]) did it give?
Answer: The inhibition at 3 µM was 103%.

Question: What about the IC50 (full-length human RORγt; [3]) of the same molecule?
Answer: The IC50 was 32 nM.

Question: And the Kd [1]?
Answer: Its Kd is 0.73 nM.

Question: How did the inhibition at 3 µM (full-length human RORγt; [2]) turn out when C[C@H]1CCCN1C(=O)c1nc(C(=O)NC[C@H](O)CO)sc1-c1cnc(NC(C)(C)C)cc1C(F)(F)F [Example 363, 5-[6-(tert-Butylamino)-4-(trifluoromethyl)-3-pyridyl]-N-[(2S)-2,3-dihydroxypropyl]-4-[(2S)-2-methylpyrrolidine-1-carbonyl]thiazole-2-carboxamide] was run?
Answer: The inhibition at 3 µM was 111%.

Question: And the IC50 (full-length human RORγt; [3])?
Answer: Its IC50 is 130 nM.

Question: What about the Kd [1] of the same molecule?
Answer: The Kd was 13 nM.

Question: For CC[C@H](Nc1cc(C(F)F)c(-c2sc(C(=O)N[C@H](C)C(C)(C)O)nc2C(=O)N2CCC[C@@H]2C)cn1)C(F)(F)F [Example 267, 5-[4-(Difluoromethyl)-6-[[(1S)-1-(trifluoromethyl)propyl]amino]-3-pyridyl]-N-[(1R)-2-hydroxy-1,2-dimethyl-propyl]-4-[(2S)-2-methylpyrrolidine-1-carbonyl]thiazole-2-carboxamide], which inhibition at 3 µM (full-length human RORγt; [2]) is on record?
Answer: The inhibition at 3 µM was 102%.

Question: What about the IC50 (full-length human RORγt; [3]) of the same molecule?
Answer: The IC50 was 47 nM.

Question: And the Kd [1]?
Answer: Its Kd is 3.3 nM.
